Experimental data published in patent US11311552B2, “Therapies for cancer” (PROXIMAGEN, LLC, priority 2015, dated 2022).

Experiments:
Assay type in all cases: in vivo
[1] = system: haematopoietic stem cells (HSCs) and progenitor cells (CFU-GEMM); test: mobilisation of haematopoietic progenitor cells in mice (FIG. 1); conditions: assessed 1 hour later, vs vehicle
Description: FIG. 1 is a graph showing the degree of mobilisation of haematopoietic stem cells (HSCs) and progenitor cells (CFU-GEMM) in mice following injection of vehicle, AMD3100 (5 mg/kg) and 6-{4-[1-(Propan-2-yl)piperidin-4-yl]-1,4-diazepan-1-yl}-N-(pyridin-4-yl)pyridine-2-carboxamide (30 mg/kg).
In the experiment represented by FIG. 1, groups of 5 mice were injected with vehicle, AMD3100 (5 mg/kg) or injected sub cutaneously with 6-{4-[1-(Propan-2-yl)piperidin-4-yl]-1,4-diazepan-1-yl}-N-(pyridin-4-yl)pyridine-2-carboxamide (30 mg/kg) and the mobilisation of haematopoietic progenitor cells assessed 1 hour later. The data are expressed for the multipotential GEMM cells as colony forming units per ml of peripheral blood.

[2] = system: human glioblastoma cell line (T98G); test: T98G subcutaneous xenograft growth in nude mice (FIG. 2, 3)
Description: The solid line represents the control (i.e. untreated). The data in FIG. 2 are presented as % of the tumours progressing in groups of 8-10 mice, where progression is defined as a 20% increase in tumour volume. Tumour volume was determined by measuring the width and depth of the tumour with calipers, and then calculating the volume. […] After 15 days all of the control mice had progressed, whereas none of the mice treated with 6-{4-[1-(Propan-2-yl)piperidin-4-yl]-1,4-diazepan-1-yl}-N-(pyridin-4-yl)pyridine-2-carboxamide had done so. Inhibition of growth of human glioblastoma cell line (T98G) in nude mice is expected to be predictive of a beneficial therapeutic outcome in human cancer patients, including patients suffering from glioblastoma and astrocytoma.
After the subcutaneous tumours had grown to at least 120 mm^3 the mice were randomised into groups and treated with temozolomide (16 mg/kg po daily for 5 days) and 6-{4-[1-(Propan-2-yl)piperidin-4-yl]-1,4-diazepan-1-yl}-N-(pyridin-4-yl)pyridine-2-carboxamide (50 mg/kg, once per day by oral gavage, for 5 days every week, dotted line).
The data are presented in FIG. 3 as % of the tumours progressing in groups of 8-10 mice, where progression is defined as a 20% increase in tumour volume.

[3] = system: human glioblastoma cell line (U87MG); test: orthotopic (intracranial) U87MG tumours in nude mice: survival and time to progression by luminescence (FIG. 4-10)
Description: The experiments represented by FIGS. 4, 5, and 6 had the same control (i.e. vehicle only), and therefore the same control data. For improved clarity, the line representing the control data has been removed from FIGS. 5 and 6, but retained in FIG. 4.
Nude mice were immobilized on a stereotaxic apparatus and anaesthetized. The operative field was prepared with betadine. A small hole was made at 1.0 mm anterior and 2 mm lateral to the exposed bregma. A sterile 5 μL Hamilton syringe with a 26 gauge needle was inserted at a depth of 3.0 mm from the skull surface and withdrawn by 0.5 mm to inject 3×10^3 U87MG cells in a volume of 3 μL. The injection rate was set up to 1 μL/min. After the implantation of the tumour cells, the needle was left in place for 5 min to prevent reflux. The needle was then completely withdrawn from the brain over the course of […] (1.0 mm/min), and the skin was sutured. Just before treatment initiation (5 days after injection), animals were randomized to treatment groups of 10 mice each. A small amount of cells was chosen (3×10^3) to simulate a chemo-radiotherapic treatment made after surgery in which a low number of tumour cells remain in the operatory bed, re-grow and give arise to a recurrence. Treatments were started 5 days after cell injection when no luciferase activity was detectable intracranially, and continued for 35 days. Time to progression (i.e. detection of luminescence) was assessed, and the mice followed for up to 180 days. […] The y axis parameter ‘survival’ is the percentage of mice not yet euthanized. The y axis parameter ‘probability of detection’ is the percentage of mice having a tumour that has progressed to the stage where luminescence is detected.
The following dosage administrations were used: 6-{4-[1-(Propan-2-yl)piperidin-4-yl]-1,4-diazepan-1-yl}-N-(pyridin-4-yl)pyridine-2-carboxamide was dosed at 50 mg/kg po once daily. Bevacizumab was dosed at 4 mg/kg iv every 4 days. Temozolomide was dosed at 32 mg/kg po daily. Sunitinib was dosed at 40 mg/kg po daily. Radiotherapy consisted of 3×2Gy daily.
For this experiment, 5×10^3 U87MG cells were injected using the technique described above. Following injection of the U87MG cells, tumours were detectable in the mice, which were treated for 28 days.

## c1cc(CN2CCCNCCNCCCNCC2)ccc1CN1CCCNCCNCCCNCC1 [AMD3100, reference compound]
[1]; 5 mg/kg, P<0.05
  mobilisation of HSCs from the mouse bone marrow (CFU-GEMM, colony forming units per ml of peripheral blood): significantly greater than that caused by vehicle

## CC(C)N1CCC(N2CCCN(c3cccc(C(=O)Nc4ccncc4)n3)CC2)CC1 [6-{4-[1-(Propan-2-yl)piperidin-4-yl]-1,4-diazepan-1-yl}-N-(pyridin-4-yl)pyridine-2-carboxamide]
[2]; 50 mg/kg once per day by oral gavage, 5 days every week, all control mice had progressed
  mice with tumour progression (20% increase in tumour volume) after 15 days: none
[2]; alone, 50 mg/kg once per day by oral gavage, 5 days every week
  growth of T98G subcutaneous xenografts compared to control: inhibits the growth
[2]; combination: 50 mg/kg po once per day 5 days every week + temozolomide 16 mg/kg po daily for 5 days
  anti-tumour efficacy on T98G subcutaneous xenografts (% of tumours progressing): synergistic
[1]; 30 mg/kg sub cutaneously
  mobilisation of HSCs from the mouse bone marrow (CFU-GEMM, colony forming units per ml of peripheral blood): does not result in significant mobilisation
[3]; alone, 50 mg/kg po once daily, p<0.001, FIG. 9A/9B
  delay of tumour growth (probability of detection), HR: 3.7
[3]; alone, 50 mg/kg po once daily, to vehicle, FIG. 8A/8B
  delay of growth of the tumour to a size detectable through luminescence, H.R.: 3.5
[3]; combination with Bevacizumab 4 mg/kg iv every 4 days, 50 mg/kg po once daily, vs vehicle, p=0.002, FIG. 4
  survival, HR: 3.4
[3]; combination with Bevacizumab 4 mg/kg iv every 4 days, vs vehicle, p=0.0001, FIG. 8A
  time taken for progression of tumours (detection by luminescence), HR: 9.7
[3]; combination with Sunitinib 40 mg/kg po daily, 50 mg/kg po once daily, vs vehicle, p=0.2, FIG. 7
  survival, HR: 1.6
[3]; combination with Sunitinib 40 mg/kg po daily, vs vehicle, p=0.0001, FIG. 8B
  time taken for progression of tumours (detection by luminescence), HR: 5.3
[3]; combination with Temozolomide 32 mg/kg po daily, 50 mg/kg po once daily, vs Temozolomide alone, p=0.02, FIG. 5
  survival, HR: 2.8
[3]; combination with irradiation and temozolomide, 5x10^3 U87MG cells, tumours detectable, treated for 28 days, p=0.025, FIG. 10
  survival, HR: 2.3
[3]; combination with radiotherapy 3x2Gy daily, 50 mg/kg po once daily, vs radiotherapy alone, p=0.0002, FIG. 6
  survival, HR: 4.0
[3]; irradiation (3x2Gy daily) alone vs combination with irradiation, p=0.0001, FIG. 9A
  delay of tumour growth (probability of detection), HR: 4.6
[3]; temozolomide (32 mg/kg po daily) alone vs combination with temozolomide, p=0.01, FIG. 9B
  delay of tumour growth (probability of detection), HR: 2.9
